Results published in patent publication US10745731B2, “Recombinant production method” (Hoffmann-La Roche Inc., priority 2015, dated 2020).
Read-outs that look alike come from different tables or passages of the source.

Columns and labels:
HEK293F cells [1] = assay type: cell-based
Protocol: (§1) To determine cell viability and viable cell density (VCD) 1 mL cultivation medium (cell suspension) was transferred into a Cedex low fouling sample cup. The cup was placed into a Vicell instrument (Beckman Coulter). The instrument mixes cells with trypan blue to stain dead cells. After analysis of 50 images VCD was calculated and viability was determined by calculation of the percentage of viable cell number in relation to the total cell number.

HEK293F cells [2] = assay: Transient gene expression in HEK293F cells: IgG concentration / titer (turbidimetric test); assay type: cell-based, human
Protocol: (§2) Transient gene expression is a 5-7 days lasting procedure. The standard operating procedure of this expression system is applicable to shaker flasks with various volumes of cell culture ranging from 80 mL to 2 L. First, half of the cell culture volume is seeded at a viable cell density (VCD) of 8*10^5 cells/mL. After two days of cultivation, cells are split to a VCD of about 12*10^5 cells/mL. On the next day, cells are transfected with a polyethylene imine (PEI)-based transfection reagent at a VCD between 20*10^5 cells/mL and 25*10^5 cells/mL. 3 hours after transfection, the production enhancer (if any) is added. 24 h after transfection, a feeding solution and a glucose bolus is supplemented to avoid the limitation of nutrients. Depending on cell viability, which should not decrease below 50%, the supernatant is harvested five to seven days post transfection and subjected to antibody purification.
(§3) To compare transient gene expression rates always the same plasmids encoding for one distinct antibody were co-transfected.
(§4) To co-transfect two plasmids equimolarily, the ratio of the base pair number of one plasmid to the total base pair number was calculated and multiplied with the total amount of DNA (0.5 mg/L). Plasmid one has a size of 10530 bp and plasmid two has a size of 7184 bp and were solved in water to a final concentration of 1 mg/mL. For transfection of one liter cell culture, 297 μL of plasmid one and 203 μl of plasmid two were dissolved in 40 mL phosphate buffered saline (PBS) at room temperature. 1.25 mL JetPEI® solution was added and the solution was mixed well. After incubation for 10-15 min., the mixture was added to the cells. The cells were transfected in a batch containing the whole cell culture necessary for every experiment to avoid variance arising from different transfection efficiencies.
(§5) 80 mL of the transfected cell culture batch was added to a 125 ml shaker flask. For every experiment, two or three 125 mL shaker flasks were used as biological replicates and treated the same way. Three hours after transfection, cells were split into 125 mL shaker flasks and the cellular treatments with small molecules or ligands were started. Basal protein expression was determined by untreated control samples. To compare samples with the standard operating procedure, cells were also treated with VPA to a final concentration of 4 mM or 3 mM. VPA and its analogues were dissolved in double distilled water. […] Tumor necrosis factor (TNF) alpha was reconstituted with PBS supplemented with 0.1% BSA. Flagellin was dissolved in sterile double distilled water. The applied molecules were not added to the cultivation directly, but diluted in 16 mL medium pre-warmed to 36.5° C. and added to the cultivation thereafter.
(§6) 24 h after transfection a feeding solution at 36.5° C. and 3 mg/mL glucose were added to the cultivation.
Total concentration of the transiently expressed antibody was determined by a turbidimetric test. One mL cell suspension was transferred into an Eppendorf cup and centrifuged for 10 min. at 10,000 rpm (9,300 g). The supernatant was transferred into a new cup and subjected to Cobas Integra 400 plus (Roche) analysis. With comparison to internal standard the absolute concentration was calculated.

HDAC [3] = assay: in situ HDAC activity fluorimetric assay in HEK293F cells; assay type: cell-based, human
Protocol: HDAC activity was determined by the in situ HDAC activity fluorimetric assay kit (Biovision) according to the manufacturer's instructions. HEK293F cells were suspended in F17 medium (Life Technologies) to a cell density of 5*10^5 cells/mL. One hundred micro liter culture was pipetted per well into a black ELISA plate. The plate was centrifuged at 1000 g for 5 min. The supernatant was discarded and the cells were resuspended in a reaction mix containing F17 medium, 1% HDAC substrate and the molecule tested towards HDAC inhibitory activity. 10 μM Trichostatin A was used as a positive control and the basal HDAC activity was determined by re-suspending the cells in F17 medium with 1% HDAC substrate. Furthermore, cells were resuspended in F17 medium without HDAC substrate as a background control. The HDAC activity assay was performed in triplicates for every sample as well as every control. The 96-well plate was incubated at 36.5° C., 80% humidity and 7% CO2 for one hour. During this time, the active HDACs deacetylate the HDAC substrate what releases the quenched fluorescent signal of the substrate. After incubation the fluorescent signal was analyzed by the infinite fluorescence plate reader (TECAN). The fluorescence signal of the samples and controls was normalized by subtracting the fluorescence signal of the background control. It is assumed that the fluorescent signal arising from deacetylation of the substrate directly correlates with HDAC activity.

HEK293F cells [4] = assay: Transient gene expression in HEK293F cells: cell specific productivity of the expressed antibody; assay type: cell-based, human; details: for specific productivity after 96 hours: none 2.01
Protocol: HEK293F cells were cultivated in F17 medium (Life Technologies) in shaker flasks at 36.5° C., 7.0% CO2 and 80% humidity in a shaker incubator (Kuhner, Mytron). Cells were split every three to four days and were cultivated no longer than five weeks. To avoid overgrowth and to keep them in the exponential phase of growth, viable cell densities (VCD) never exceeded 60*10^5 cells/mL.
as §2, §3, §4, §5, §6, §1
Total concentration of the transiently expressed antibody was determined by a turbidimetric test. One mL cell suspension was transferred into an Eppendorf cup and centrifuged for 10 min. at 10,000 rpm (9,300 g).

HDAC [5] = details: description from the literature; cited from earlier work

Molecule: CCCC(CCC)C(=O)O [valproic acid, 2-propylpentanoic acid]
- growth inhibition and cell death (HEK293F cells [1]; in contrast to other HDACi tested): induce growth inhibition and cell death
- relative IgG concentration (HEK293F cells [2]; 2 mM, VPA/2M2P combination study, none=100, N=3): 217%
- relative IgG concentration (HEK293F cells [2]; 2 mM, VPA/Quisinostat combination study, none=100, N=3): 217%
- final titer (HEK293F cells [2]; 3 mM, none 39.8, N=3): 68.8 mg/L
- relative titer (HEK293F cells [2]; 3 mM, none=100, N=1): 188%
- relative IgG concentration (HEK293F cells [2]; 4 mM, none=100, N=3, FIG. 6B): 173%
- relative IgG concentration (HEK293F cells [2]; 4 mM, none=100, N=3, FIG. 8B): 173%
- relative IgG concentration (HEK293F cells [2]; 4 mM, none=100, N=3, FIG. 9B): 173%
- HDACi (HDAC [3]; 3 mM, N=3, FIG. 3A): 58%
- HDAC inhibition (HDAC [3]; yes/no, summary table): yes
- cell specific productivity with BAY11-7082 addition compared to the single treatment (HEK293F cells [4]; 15 μM BAY11-7082 added 24 h after transfection): significantly reduced
- specific productivity after 96 hours (HEK293F cells [4]; 3 mM, single treatment, N=3): 4.92 pg/cell/day
- activity at 500 µM (HEK293F cells [4]; Homo sapiens, HEK293F, 0.5 mM, sole enhancer, control=100, N=2, FIG. 1, read-out: relative cell specific productivity): 184%
- activity at 1000 µM (HEK293F cells [4]; Homo sapiens, HEK293F, 1 mM, sole enhancer, control=100, N=2, FIG. 1, read-out: relative cell specific productivity): 204%
- activity at 2000 µM (HEK293F cells [4]; Homo sapiens, HEK293F, 2 mM, VPA/2M2P combination study, none=100, N=3, read-out: relative cell specific productivity): 278%
- activity at 2000 µM (HEK293F cells [4]; Homo sapiens, HEK293F, 2 mM, VPA/Quisinostat combination study, none=100, N=3, read-out: relative cell specific productivity): 278%
- activity at 2000 µM (HEK293F cells [4]; Homo sapiens, HEK293F, 2 mM, sole enhancer, control=100, N=2, FIG. 1, read-out: relative cell specific productivity): 246%
- activity at 3000 µM (HEK293F cells [4]; Homo sapiens, HEK293F, 3 mM, single treatment, none=100, N=3, read-out: relative cell specific productivity): 237%
- activity at 3000 µM (HEK293F cells [4]; Homo sapiens, HEK293F, 3 mM, sole enhancer, control=100, N=2, FIG. 1, read-out: relative cell specific productivity): 284%
- activity at 3000 µM (HEK293F cells [4]; Homo sapiens, HEK293F, 3 mM, transfected control=100, N=3, FIG. 3B, read-out: relative cell specific productivity): 316%
- activity at 4000 µM (HEK293F cells [4]; Homo sapiens, HEK293F, 4 mM, sole enhancer, control=100, N=2, FIG. 1, read-out: relative cell specific productivity): 273%
- activity at 6000 µM (HEK293F cells [4]; Homo sapiens, HEK293F, 6 mM, sole enhancer, control=100, N=2, FIG. 1, read-out: relative cell specific productivity): 223%
- activity at 4000 µM (HEK293F cells [4]; Homo sapiens, HEK293F, employed concentration 4 mM, none=100, N=2, FIG. 2B, read-out: relative cell specific productivity): 326%
- activity at 4000 µM (HEK293F cells [4]; Homo sapiens, HEK293F, employed concentration 4 mM, none=100, N=2, FIG. 4, read-out: relative cell specific productivity): 315%
- Mean cell specific productivity (HEK293F cells [4]; conc. 3 mM, untreated 1.71): 5.4 (3 mM) pg/cell/24 h
- Effect on titer/SPR (HEK293F cells [4]; summary table, in words): strong

Molecule: CCCC(CCC)C(N)=O [valpromide]
- cytotoxicity (HEK293F cells [1]; 3 mM): cytotoxic
- toxicity (remark in productivity cell) (HEK293F cells [1]; employed concentration 3 mM): toxic
- HDAC inhibitory activity (HDAC [5]): very weak to no HDAC inhibitory activity
- TGE enhancement (HEK293F cells [4]; 2 mM, in words): Weak TGE enhancement
- activity at 2000 µM (HEK293F cells [4]; Homo sapiens, HEK293F, employed concentration 2 mM, none=100, N=2, FIG. 4, read-out: relative cell specific productivity): 155%
- activity at 3000 µM (HEK293F cells [4]; Homo sapiens, HEK293F, employed concentration 3 mM, none=100, N=2, FIG. 4, read-out: relative cell specific productivity): 0%

B1: Flagellin: Flagellin from Salmonella typhimurium, TLR5 agonist, NFκB activator (protein, UniProt P06179 2-495, looked up)
Flagellin: AQVINTNSLSLLTQNNLNKSQSALGTAIERLSSGLRINSAKDDAAGQAIANRFTANIKGLTQASRNANDGISIAQTTEGALNEINNNLQRVRELAVQSANSTNSQSDLDSIQAEITQRLNEIDRVSGQTQFNGVKVLAQDNTLTIQVGANDGETIDIDLKQINSQTLGLDTLNVQQKYKVSDTAATVTGYADTTIALDNSTFKASATGLGGTDQKIDGDLKFDDTTGKYYAKVTVTGGTGKDGYYEVSVDKTNGEVTLAGGATSPLTGGLPATATEDVKNVQVANADLTEAKAALTAAGVTGTASVVKMSYTDNNGKTIDGGLAVKVGDDYYSATQNKDGSISINTTKYTADDGTSKTALNKLGGADGKTEVVSIGGKTYAASKAEGHNFKAQPDLAEAAATTTENPLQKIDAALAQVDTLRSDLGAVQNRFNSAITNLGNTVNNLTSARSRIEDSDYATEVSNMSRAQILQQAGTSVLAQANQVPQNVLSLLR
- toxicity (HEK293F cells [1]; compared amongst NFκB activators): mildest toxicity
- relative IgG concentration (HEK293F cells [2]; 2 ng/mL, none=100, N=3, FIG. 6B): 133%
- relative IgG concentration (HEK293F cells [2]; 2 ng/mL, none=100, N=3, FIG. 8B): 128%
- relative cell specific productivity (HEK293F cells [4]; 2 ng/mL, none=100, N=3, FIG. 6A): 135%
- relative cell specific productivity (HEK293F cells [4]; 2 ng/mL, none=100, N=3, FIG. 8A): 135%
- specific productivity after 96 hours (HEK293F cells [4]; 2 ng/mL, single treatment, N=3): 2.27 pg/cell/day
- relative cell specific productivity (HEK293F cells [4]; 2 ng/mL, single treatment, none=100, N=3): 134%
- relative cell specific productivity (HEK293F cells [4]; 10 ng/mL, none=100, N=2, FIG. 5): 154%
- TGE enhancement after BAY11-7082 treatment compared to the corresponding single treatment (HEK293F cells [4]; BAY11-7082 added 24 hours after stimulation): significantly reduced
